Measurements reported in ChEMBL document CHEMBL3272131, “Molecular connectivity. 6. Examination of the parabolic relationship between molecular connectivity and biological activity” (J Med Chem, 1976).

How the values were obtained:
[1] = species on record: Rattus norvegicus; experiment: Induction of hypnotic activity in rat; format: functional
[2] = system: Mus musculus; experiment: Induction of anesthetic activity in mouse; format: functional
[3] = system: Mycobacterium tuberculosis; experiment: Antimicrobial activity against Mycobacterium tuberculosis; format: functional
[4] = Drug absorption in intestine (unknown origin) assessed as serosal transfer; format: ADME, tissue-based
[5] = Drug absorption in intestine (unknown origin) assessed as mucosal loss; format: ADME, tissue-based
[6] = Drug absorption in intestine (unknown origin) assessed as tissue-bound transfer; format: ADME, tissue-based
[7] = system: Staphylococcus aureus; experiment: Antimicrobial activity against Staphylococcus aureus; format: functional
[8] = system: Clostridium perfringens; experiment: Antimicrobial activity against Clostridium welchii; format: functional
[9] = Toxicity in sheep RBC assessed as hemolysis; format: cell-based, Ovis aries; details: erythrocyte
[10] = system: Pseudomonas aeruginosa; experiment: Antimicrobial activity against Pseudomonas aeruginosa; format: functional
[11] = species on record: Oryctolagus cuniculus; experiment: Induction of hypnotic activity in rabbit; format: functional

Compound: C=CCC1(CC)C(=O)NC(=O)NC1=O [ETALLOBARBITAL]
- -log(1/MED) [1]: 3.28

Compound: CCCCC1(C(C)C(C)(C)C)C(=O)NC(=O)NC1=O (centres undefined)
- -log(1/AD50) [2]: 3.36

Compound: CC(C)CCC1(CC(C)(C)C)C(=O)NC(=O)NC1=O
- -log(1/AD50) [2]: 3.26

Compound: COc1ncccc1N
- -log(1/MIC) [3]: 2.59

Compound: CCCCCC1(CC(C)(C)C)C(=O)NC(=O)NC1=O
- -log(1/AD50) [2]: 3.32

Compound: CCCOC(N)=O
- log%Abs [4]: 0.71
- log%Abs [5]: 0.78
- log%Abs [6]: -0.04

Compound: CCCOc1ncccc1N
- -log(1/MIC) [3]: 4.79

Compound: CCCCCCCCOc1ncccc1N
- -log(1/MIC) [3]: 3.75

Compound: CCCCCCCCCCCCCCCC[N+](C)(C)Cc1ccc2c(c1)OCO2
- -log(1/MIC) [7]: 4.2

Compound: CCC1(CC)C(=O)NC(=O)NC1=O [BARBITAL]
- -log(1/MED) [1]: 2.91

Compound: CCCCCCCCCCCCCCCCCC[N+](C)(C)Cc1ccccc1
- -log(1/MIC) [7]: 5.19
- -log(1/MIC) [8]: 4.71
- -log(1/MKC) [8]: 4.71
- -log(1/HC50) [9]: 4.52
- -log(1/MKC) [10]: 2.63

Compound: CCCCCCCCCCCCCCCCC[N+](C)(C)Cc1ccccc1
- -log(1/MIC) [7]: 5.18
- -log(1/MIC) [8]: 4.7
- -log(1/MKC) [8]: 4.7
- -log(1/MIC) [10]: 3.57
- -log(1/MKC) [10]: 3.06

Compound: CCCCCCCOC(N)=O
- log%Abs [4]: -0.17
- log%Abs [5]: 0.08
- log%Abs [6]: -0.28

Compound: CCCCC1(CCCC)C(=O)NC(=O)NC1=O
- -log(1/MED) [1]: 3.08

Compound: CCCC1(C(C)C(C)(C)C)C(=O)NC(=O)NC1=O (centres undefined)
- -log(1/AD50) [2]: 3.29

Compound: CCCC1(CCC(C)C)C(=O)NC(=O)NC1=O
- -log(1/MED) [11]: 3.48

Compound: CCCCCCCC[N+](C)(C)Cc1ccccc1
- -log(1/MIC) [7]: 3.69
- -log(1/MIC) [8]: 3
- -log(1/MKC) [8]: 2.69
- -log(1/HC50) [9]: 1.52
- -log(1/MKC) [10]: 1.68

Compound: CCCC(C)(C)OC(N)=O
- log%Abs [4]: 0.09
- log%Abs [5]: 0.26
- log%Abs [6]: -0.21

Compound: CCOC(N)=O [URETHANE]
- log%Abs [4]: 0.53
- log%Abs [5]: 0.6
- log%Abs [6]: -0.22

Compound: CCCCCCCCCCCC[N+](C)(C)Cc1ccc2c(c1)OCO2
- -log(1/MIC) [7]: 4

Compound: COC(N)=O [METHYL CARBAMATE]
- log%Abs [4]: 0.45
- log%Abs [5]: 0.52
- log%Abs [6]: -0.38

Compound: CCCCCCCCCC[N+](C)(C)Cc1ccccc1
- -log(1/MIC) [7]: 4.74
- -log(1/MIC) [8]: 3.57
- -log(1/MKC) [8]: 3.57
- -log(1/HC50) [9]: 2.95
- -log(1/MIC) [10]: 2.74
- -log(1/MKC) [10]: 2.41

Compound: C=CCC1(CCC)C(=O)NC(=O)NC1=O
- -log(1/MED) [1]: 3.47

Compound: CCCCCCCCCCCCCCC[N+](C)(C)Cc1ccccc1
- -log(1/MIC) [7]: 5.84
- -log(1/MIC) [8]: 5.14
- -log(1/MKC) [8]: 5.14
- -log(1/MIC) [10]: 3.84
- -log(1/MKC) [10]: 3.74

Compound: CC(C)COC(N)=O
- log%Abs [4]: 0.75
- log%Abs [5]: 0.83
- log%Abs [6]: 0.04

Compound: C=CCC1(CC(C)C)C(=O)NC(=O)NC1=O [BUTALBITAL]
- -log(1/MED) [1]: 3.63

Compound: CCCCCOC(N)=O
- log%Abs [4]: 0.57
- log%Abs [5]: 0.68
- log%Abs [6]: 0.02

Compound: CCCCCCCCCCCCC[N+](C)(C)Cc1ccccc1 [BENZALKONIUM]
- -log(1/MIC) [7]: 5.8
- -log(1/MIC) [8]: 5.1
- -log(1/MKC) [8]: 5.1
- -log(1/MIC) [10]: 3.8
- -log(1/MKC) [10]: 3.85

Compound: CCCCCCCCCCCCCCCCCCC[N+](C)(C)Cc1ccccc1
- -log(1/MIC) [7]: 4.91
- -log(1/MIC) [8]: 4.73
- -log(1/MKC) [8]: 4.73
- -log(1/MIC) [10]: 2.91
- -log(1/MKC) [10]: 2.52

Compound: CCCCCCCCCCCCCCCCCC[N+](C)(C)Cc1ccc(Cl)cc1Cl
- -log(1/MIC) [7]: 3.3

Compound: CCCCOc1ccncc1N
- -log(1/MIC) [3]: 5.73

Compound: CCCCCCOc1ccc(N)cn1
- -log(1/MIC) [3]: 5.49

Compound: CCCCCOc1ccc(N)cc1
- -log(1/MIC) [3]: 5.45

Compound: C=CCC1(CCC(C)C)C(=O)NC(=O)NC1=O
- -log(1/MED) [1]: 3.45

Compound: CCC1(CCC(C)C)C(=O)NC(=O)NC1=O [AMOBARBITAL]
- -log(1/MED) [1]: 3.59

Compound: CCCC1(CC(C)(C)C)C(=O)NC(=O)NC1=O
- -log(1/AD50) [2]: 3.04

Compound: CCCCCCOC(N)=O
- log%Abs [4]: 0.35
- log%Abs [5]: 0.5
- log%Abs [6]: -0.05

Compound: CCCCCCCCCCCCCCCC[N+](C)(C)Cc1ccccc1 [CETALKONIUM]
- -log(1/MIC) [7]: 5.56
- -log(1/MIC) [8]: 5.16
- -log(1/MKC) [8]: 5.16
- -log(1/HC50) [9]: 4.79
- -log(1/MIC) [10]: 3.68
- -log(1/MKC) [10]: 3.3

Compound: C=CCC1(C(C)C)C(=O)NC(=O)NC1=O [APROBARBITAL]
- -log(1/MED) [1]: 3.6
